Measured values reported in patent publication US8846653B2, “Delta-tocotrienol treatment and prevention of pancreatic cancer” (University of South Florida, priority 2006, dated 2014).

How the values were obtained:
SW1990 cells = test: Proliferation by MTT, increasing concentrations of δ-tocotrienol; format: cell-based, human; conditions: SW1990, at 24 hours; read-out: IC50 (inhibition of proliferation, MTT)
Procedure: FIG. 23 is a graph wherein SW1990 pancreatic cancer cells (3×10^3) were plated in 96 well plates and treated the following day with δ-tocotrienol. Proliferation was assessed by MTT at 24 hour intervals. […] HPDE 6C7 cells were also treated with increasing concentrations of 8-tocotrienol for 24 hours.
MIA PaCa2, SW1990, BXPC3, and HPDE 6C7 cells (3×10^3) were cultured as described in the Examples above, in 96-well plates and treated the following day with increasing concentrations of δ-tocotrienol.

[1] = tested on: oncogenic Ras signaling targets in tumors; test: Immunohistochemical staining of extracted xenograft tumors; format: in vivo, mice
Procedure: FIGS. 50A and B are immunohistochemical stains of the effects of δ-tocotrienol on oncogenic Ras signaling targets. […] A. A comparison of H&E, Ki67, and p-MAPK staining of control versus delta-tocotrienol treated MIA PaCa2 cells. B. A comparison of p-AKT, p27^kip1, and TUNEL staining of control versus delta-tocotrienol treated cells.
Tumors were extracted on the last day of treatment and imbedded in paraffin. Immunohistochemical staining was performed to determine the effects of δ-tocotrienol on oncogenic Ras signaling targets. […] Furthermore, the biomarker proteins p-MAPK and p-AKT were decreased and p27^kip1 expression was increased in δ-tocotrienol treated tumors. […] This is associated with inhibition of AKT signaling targets. Moreover, overexpression of myr AKT in Pancreatic Cancer cells rescues the effect δ-Tocotrienol induces apoptosis in vitro and in vivo.

[2] = tumors from treated mice vs control group

**Q.** For `CC(C)=CCC/C(C)=C/CC/C(C)=C/CC[C@]1(C)CCc2cc(O)cc(C)c2O1` [T3 delta, delta tocotrienol], which IC50 (SW1990 cells) is on record?
**A.** The IC50 was 20 to 25 µM.

**Q.** What about the “p27^kip1 expression” value ([1]; treated tumors) of the same compound?
**A.** Its value is “increased”.

**Q.** What about the p-AKT ([1]; treated tumors) of the same compound?
**A.** Its p-AKT is “decreased”.

**Q.** And the p-MAPK ([1]; treated tumors)?
**A.** The p-MAPK was “decreased”.

**Q.** And the “Ki67 staining (proliferation)” value [1, 2]?
**A.** Its value is “decrease in Ki67”.

**Q.** And the “TUNEL staining (apoptosis)” value [1, 2]?
**A.** Its value is “induction of apoptosis”.
